From US10813939B2, “Bromodomain inhibitor as adjuvant in cancer immunotherapy” (H. LEE MOFFITT CANCER CENTER AND RESEARCH INSTITUTE, INC., priority 2014, dated 2020)
“Also recorded” adds a separate entry of the source.

How the values were obtained:
Format in all cases: cell-based
IL-6 [1] = assay: IL-6 production by ELISA in PEM treated with JQ1 with and without LPS; details: PEM (PEM or bone marrow derived DCs), 24 hours, supernatant ELISA
Method: (§1) Macrophages (PEM) were treated with different concentrations of JQ1 in presence and absence of LPS (stimulant for macrophages). After 24 hours, supernatant was collected and IL -10 & IL-6 production was determined by ELISA.

tolerant CD4+ T-cells = assay: JQ1-treated PEM co-cultured with tolerant T-cells and OVA peptide, IFN-γ ELISA; details: PEM treated with JQ1+LPS 24 hours, co-culture 48 hours with OVA peptide, tolerant CD4+ T-cells from lymphoma bearing hosts
Method: (§2) PEM were treated with different concentrations of JQ1 in presence and absence of LPS. After 24 hours, PEM was washed twice with warm RPMI. Naïve CD4 T-cells or tolerant T-cells were added to the plated macrophages with or without OVA peptide and co-cultured for 48 hours. IL-2 and IFN-γ production were determined by ELISA. Without OVA peptide, there was no production of IL-2 or IFN-γ.

PD-L1 [2] = assay: PD-L1 mRNA expression by real time PCR in PEM; details: LPS+JQ1 combination
PD-L1 [3] = assay: Flow cytometry of PEM with anti-PD-L1; details: JQ1 & LPS versus LPS alone, treated versus untreated APCs
Method: (§3) PEM were treated with different concentrations of JQ1 in presence and absence of LPS. Flow cytometry was performed on PEM treated with different concentrations of JQ1 in presence and absence of LPS using anti-PD-Ll and anti-PD-L2 as well as isotype as a control.

IL-10 [4] = assay: IL-10 mRNA expression by real time PCR in PEM; details: PEM or DCs, increasing JQ1, LPS stimulation
IL-6 [5] = assay: IL-6 mRNA expression by real time PCR in PEM; details: PEM or DCs, increasing JQ1, LPS stimulation
PD-L2 = assay: Flow cytometry of PEM with anti-PD-L2; details: JQ1 & LPS versus LPS alone
Method: as §3

PEM = PEM cell viability after 24 hours JQ1
Method: In order to determine the best working concentration of JQ1 in PEM, plated PEM (96-well plate) were treated with increased concentration of JQ1 for 24 hours then cell viability was determined. A threshold of 100 to 800 nanomolar was determined to be acceptable.

Naïve CD4 T-cells = assay: JQ1-treated PEM co-cultured with naive CD4 T-cells and OVA peptide, cytokine ELISA; details: PEM treated 24 hours, co-culture 48 hours with OVA peptide
Method: as §2

IL-10 [6] = assay: IL-10 production by ELISA in PEM treated with JQ1 with and without LPS; details: PEM (PEM or bone marrow derived DCs), 24 hours, supernatant ELISA
Method: as §1

In the case of Cc1sc2c(c1C)C(c1ccc(Cl)cc1)=N[C@@H](CC(=O)OC(C)(C)C)c1nnc(C)n1-2 [JQ1, (S)-tert-butyl 2-(4-(4-chlorophenyl)-2,3,9-trimethyl-6H-thieno[3,2-f][1,2,4]triazolo[4,3-a][1,4]diazepin-6-yl)acetate], the IL-6 production (IL-6 [1]) is reported as “decreased production”, the IL-6 production (IL-6 [1]; listed as JQ 1) is reported as “decreased expression and protein production” and the “IFN-gamma production by tolerant T-cells / responsiveness of tolerant T-cells” value (tolerant CD4+ T-cells) is reported as “enhanced IFN-gamma production; also recorded: restoration of tolerant T-cell function”. For the same compound, the “IFN-gamma production by tolerant T-cells / responsiveness of tolerant T-cells” value (tolerant CD4+ T-cells; listed as JQ 1) was “able to restore the responsiveness; also recorded: capable of restoring the responsiveness”, the “PDL1 mRNA expression” value (PD-L1 [2]) was “decreased expression” and the “PD-L1 expression (flow cytometry)” value (PD-L1 [3]) was “relatively decreased expression”. The “PD-L1 expression (flow cytometry)” value (PD-L1 [3]; listed as JQ 1) was “decreased expression; also recorded: lower expression”, the “IL-10 expression (mRNA)” value (IL-10 [4]) was “decreased expression” and the “IL-6 expression (mRNA)” value (IL-6 [5]) was “decreased expression”. For the same compound, the “PD-L2 expression (flow cytometry)” value (PD-L2) was “relatively decreased expression”, the “acceptable working concentration threshold (cell viability)” value (PEM; PEM, 96-well plate, 24 hours) was 100 to 800 nM and the “viability of treated APCs” value (PEM; at the concentration used (FIG. 1)) was “did not affect the viability”. For the same compound, the “IFN-gamma production by CD4 T-cell” value (Naïve CD4 T-cells) was “increase in dose dependent production”, the “IL-2 production by CD4 T-cell” value (Naïve CD4 T-cells) was “increase in dose dependent production” and the “IFN-gamma production by CD4 T-cell” value (Naïve CD4 T-cells; listed as JQ 1) was “increased production”. The “IL-2 production by CD4 T-cell” value (Naïve CD4 T-cells; listed as JQ 1) was “increased production”, the IL-10 production (IL-10 [6]) was “decreased production” and the IL-10 production (IL-10 [6]; listed as JQ 1) was “decreased expression and protein production”.
